Laboratory results taken from ChEMBL document CHEMBL4819076, “An affinity prediction approach for the ligand of E3 ligase Cbl-b and an insight into substrate binding pattern” (Bioorg Med Chem, 2021).
Where a SMILES comes first, the peptide text is derived from it. [ ]: non-standard residue; d: D form. pY = N[C@@H](Cc1ccc(OP(=O)(O)O)cc1)C(=O)O

How the values were obtained:
[1] = molecular target: T1, E3 ubiquitin-protein ligase CBL-B (Homo sapiens, UniProt Q13191); test: Binding affinity to recombinant His-tagged Cbl-b (unknown origin) (39 to 368 residues) expressed in Escherichia coli BL21 (DE3) using FITC-DGpYPEPA-NH2 as substrate incubated for 30 mins by fluorescence polarization assay
[2] = molecular target: T1, E3 ubiquitin-protein ligase CBL-B; test: Binding affinity to recombinant His-tagged Cbl-b (unknown origin) (39 to 368 residues) expressed in Escherichia coli BL21 (DE3) assessed as dissociation constant by bio-layer interferometry assay

T1 sequence (Q13191 whole entry, the tested form may be a part): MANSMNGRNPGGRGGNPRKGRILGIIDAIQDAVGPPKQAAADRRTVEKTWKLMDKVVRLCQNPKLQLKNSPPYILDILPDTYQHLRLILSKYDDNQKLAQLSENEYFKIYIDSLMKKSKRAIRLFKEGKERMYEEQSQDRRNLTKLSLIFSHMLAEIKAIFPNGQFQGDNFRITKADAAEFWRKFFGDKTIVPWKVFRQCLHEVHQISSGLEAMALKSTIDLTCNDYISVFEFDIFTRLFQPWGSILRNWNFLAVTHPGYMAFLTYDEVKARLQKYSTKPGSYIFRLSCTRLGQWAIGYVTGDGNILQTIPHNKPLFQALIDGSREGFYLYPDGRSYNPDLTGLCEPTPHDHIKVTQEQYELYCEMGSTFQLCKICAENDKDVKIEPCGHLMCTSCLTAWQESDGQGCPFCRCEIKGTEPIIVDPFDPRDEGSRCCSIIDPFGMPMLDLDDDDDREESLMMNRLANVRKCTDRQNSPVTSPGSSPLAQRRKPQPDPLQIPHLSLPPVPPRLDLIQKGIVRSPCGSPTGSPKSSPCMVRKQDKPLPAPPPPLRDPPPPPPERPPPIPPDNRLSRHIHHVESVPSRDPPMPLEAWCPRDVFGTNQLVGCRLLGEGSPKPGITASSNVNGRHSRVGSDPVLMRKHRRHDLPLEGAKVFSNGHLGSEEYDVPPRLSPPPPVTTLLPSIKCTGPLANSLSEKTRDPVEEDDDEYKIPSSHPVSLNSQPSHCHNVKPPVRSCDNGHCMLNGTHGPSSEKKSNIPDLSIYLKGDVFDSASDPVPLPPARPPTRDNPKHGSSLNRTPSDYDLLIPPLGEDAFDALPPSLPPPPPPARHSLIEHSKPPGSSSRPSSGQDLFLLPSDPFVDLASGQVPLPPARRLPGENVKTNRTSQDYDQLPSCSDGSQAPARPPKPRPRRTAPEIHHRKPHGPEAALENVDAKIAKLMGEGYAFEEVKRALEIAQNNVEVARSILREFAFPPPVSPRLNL

Molecule | IC50 [1] [µM] | Kd [2] [µM]
CC(=O)N[C@@H](Cc1ccc(OP(=O)(O)O)cc1)C(=O)N[C@H](C(=O)N1CCC[C@H]1C(=O)N[C@@H](CCC(=O)O)C(=O)N1CCC[C@H]1C(N)=O)[C@@H](C)O | 7.84 | 5.55
CC(=O)N[C@@H](CC(=O)O)C(=O)NCC(=O)N[C@@H](Cc1ccc(OP(=O)(O)O)cc1)C(=O)N[C@H](C(=O)N1CCC[C@H]1C(=O)N[C@@H](CCC(=O)O)C(=O)N1CCC[C@H]1C(=O)N[C@@H](C)C(N)=O)[C@@H](C)O (Ac-DG[pY]TPEPA-NH2) | 10.6 | 24.4
CC(=O)NCC(=O)N[C@@H](Cc1ccc(OP(=O)(O)O)cc1)C(=O)N[C@H](C(=O)N1CCC[C@H]1C(=O)N[C@@H](CCC(=O)O)C(=O)N1CCC[C@H]1C(N)=O)[C@@H](C)O (Ac-G[pY]TPEP-NH2) | 11.3 | 22.4
CC(=O)N[C@@H](CC(C)C)C(=O)N[C@@H](CCC(N)=O)C(=O)N[C@@H](CCCNC(=N)N)C(=O)N[C@@H](Cc1ccc(OP(=O)(O)O)cc1)C(=O)N[C@@H](CO)C(=O)N[C@@H](CO)C(=O)N[C@@H](CC(=O)O)C(=O)N1CCC[C@H]1C(=O)N[C@H](C(=O)NCC(N)=O)[C@@H](C)O (Ac-LQR[pY]SSDPTG-NH2) |  | 8.28
CC(=O)N[C@@H](CCCNC(=N)N)C(=O)N[C@@H](Cc1ccc(OP(=O)(O)O)cc1)C(=O)N[C@H](C(=O)N1CCC[C@H]1C(=O)N[C@@H](CCC(=O)O)C(=O)N1CCC[C@H]1C(N)=O)[C@@H](C)O (Ac-R[pY]TPEP-NH2) |  | 0.763
CC(=O)N[C@@H](Cc1ccc(OP(=O)(O)O)cc1)C(=O)N[C@@H](C)C(=O)N1CCC[C@H]1C(=O)N[C@@H](CCC(=O)O)C(=O)N1CCC[C@H]1C(N)=O (Ac-[pY]APEP-NH2) | 104 | 57.1
CC(=O)N[C@@H](Cc1ccc(OP(=O)(O)O)cc1)C(=O)N[C@H](C(=O)N[C@@H](C)C(=O)N[C@@H](CCC(=O)O)C(=O)N1CCC[C@H]1C(N)=O)[C@@H](C)O (Ac-[pY]TAEP-NH2) | 27.3 | 24.4
CC[C@H](C)[C@H](NC(=O)[C@@H](NC(=O)[C@H](Cc1ccc(OP(=O)(O)O)cc1)NC(C)=O)[C@@H](C)O)C(=O)N[C@@H](CCC(=O)O)C(=O)N1CCC[C@H]1C(N)=O (Ac-[pY]TIEP-NH2) |  | 35.5
CC(=O)N[C@@H](Cc1ccc(OP(=O)(O)O)cc1)C(=O)N[C@H](C(=O)N[C@@H](CC(C)C)C(=O)N[C@@H](CCC(=O)O)C(=O)N1CCC[C@H]1C(N)=O)[C@@H](C)O (Ac-[pY]TLEP-NH2) |  | 29.8
CC(=O)N[C@@H](Cc1ccc(OP(=O)(O)O)cc1)C(=O)N[C@H](C(=O)N1CCC[C@H]1C(=O)N[C@@H](C)C(=O)N1CCC[C@H]1C(N)=O)[C@@H](C)O (Ac-[pY]TPAP-NH2) | 46.3 | 18.5
CC(=O)N[C@@H](Cc1ccc(OP(=O)(O)O)cc1)C(=O)N[C@H](C(=O)N1CCC[C@H]1C(=O)N[C@@H](CC(=O)O)C(=O)N1CCC[C@H]1C(N)=O)[C@@H](C)O (Ac-[pY]TPDP-NH2) |  | 22.9
CC(=O)N[C@@H](Cc1ccc(OP(=O)(O)O)cc1)C(=O)N[C@H](C(=O)N1CCC[C@H]1C(=O)N[C@@H](CCC(=O)O)C(N)=O)[C@@H](C)O (Ac-[pY]TPE-NH2) | 398 | 98.3
CC(=O)N[C@@H](Cc1ccc(OP(=O)(O)O)cc1)C(=O)N[C@H](C(=O)N1CCC[C@H]1C(=O)N[C@@H](CCC(=O)O)C(=O)N[C@@H](Cc1ccccc1)C(N)=O)[C@@H](C)O (Ac-[pY]TPEF-NH2) |  | 33.5
CC(=O)N[C@@H](Cc1ccc(OP(=O)(O)O)cc1)C(=O)N[C@H](C(=O)N1CCC[C@H]1C(=O)N[C@@H](CCC(N)=O)C(=O)N1CCC[C@H]1C(N)=O)[C@@H](C)O (Ac-[pY]TPQP-NH2) |  | 43.4
C[C@@H](O)[C@H](NC(=O)[C@H](Cc1ccc(OP(=O)(O)O)cc1)NC(=O)CN)C(=O)N1CCC[C@H]1C(=O)N[C@@H](CCC(=O)O)C(=O)O (H-G[pY]TPE-OH) | > 1000 | 
Ac-ETPEP-NH2 | > 1000 | 
